Source: ChEMBL document CHEMBL5113378, “Role of basic aminoalkyl chains in the lead optimization of Indoloquinoline alkaloids” (Eur J Med Chem, 2022)
pIC50: −log10 of the molar value. Values after ≈ are worked out from the molar mass of the structure shown. Each block holds one compound with its values, some of them ahead of it.

Columns and labels:
[1] = system: A549; assay: Antiproliferative activity against human A549 cells assessed as cell growth inhibition; type: functional, cell-based
[2] = target: DNA topoisomerase 2-beta (Homo sapiens) (UniProt Q02880); assay: Inhibition of human topoisomerase-2-beta
DNA topoisomerase 2-beta (Homo sapiens), sequence (Q02880 whole entry): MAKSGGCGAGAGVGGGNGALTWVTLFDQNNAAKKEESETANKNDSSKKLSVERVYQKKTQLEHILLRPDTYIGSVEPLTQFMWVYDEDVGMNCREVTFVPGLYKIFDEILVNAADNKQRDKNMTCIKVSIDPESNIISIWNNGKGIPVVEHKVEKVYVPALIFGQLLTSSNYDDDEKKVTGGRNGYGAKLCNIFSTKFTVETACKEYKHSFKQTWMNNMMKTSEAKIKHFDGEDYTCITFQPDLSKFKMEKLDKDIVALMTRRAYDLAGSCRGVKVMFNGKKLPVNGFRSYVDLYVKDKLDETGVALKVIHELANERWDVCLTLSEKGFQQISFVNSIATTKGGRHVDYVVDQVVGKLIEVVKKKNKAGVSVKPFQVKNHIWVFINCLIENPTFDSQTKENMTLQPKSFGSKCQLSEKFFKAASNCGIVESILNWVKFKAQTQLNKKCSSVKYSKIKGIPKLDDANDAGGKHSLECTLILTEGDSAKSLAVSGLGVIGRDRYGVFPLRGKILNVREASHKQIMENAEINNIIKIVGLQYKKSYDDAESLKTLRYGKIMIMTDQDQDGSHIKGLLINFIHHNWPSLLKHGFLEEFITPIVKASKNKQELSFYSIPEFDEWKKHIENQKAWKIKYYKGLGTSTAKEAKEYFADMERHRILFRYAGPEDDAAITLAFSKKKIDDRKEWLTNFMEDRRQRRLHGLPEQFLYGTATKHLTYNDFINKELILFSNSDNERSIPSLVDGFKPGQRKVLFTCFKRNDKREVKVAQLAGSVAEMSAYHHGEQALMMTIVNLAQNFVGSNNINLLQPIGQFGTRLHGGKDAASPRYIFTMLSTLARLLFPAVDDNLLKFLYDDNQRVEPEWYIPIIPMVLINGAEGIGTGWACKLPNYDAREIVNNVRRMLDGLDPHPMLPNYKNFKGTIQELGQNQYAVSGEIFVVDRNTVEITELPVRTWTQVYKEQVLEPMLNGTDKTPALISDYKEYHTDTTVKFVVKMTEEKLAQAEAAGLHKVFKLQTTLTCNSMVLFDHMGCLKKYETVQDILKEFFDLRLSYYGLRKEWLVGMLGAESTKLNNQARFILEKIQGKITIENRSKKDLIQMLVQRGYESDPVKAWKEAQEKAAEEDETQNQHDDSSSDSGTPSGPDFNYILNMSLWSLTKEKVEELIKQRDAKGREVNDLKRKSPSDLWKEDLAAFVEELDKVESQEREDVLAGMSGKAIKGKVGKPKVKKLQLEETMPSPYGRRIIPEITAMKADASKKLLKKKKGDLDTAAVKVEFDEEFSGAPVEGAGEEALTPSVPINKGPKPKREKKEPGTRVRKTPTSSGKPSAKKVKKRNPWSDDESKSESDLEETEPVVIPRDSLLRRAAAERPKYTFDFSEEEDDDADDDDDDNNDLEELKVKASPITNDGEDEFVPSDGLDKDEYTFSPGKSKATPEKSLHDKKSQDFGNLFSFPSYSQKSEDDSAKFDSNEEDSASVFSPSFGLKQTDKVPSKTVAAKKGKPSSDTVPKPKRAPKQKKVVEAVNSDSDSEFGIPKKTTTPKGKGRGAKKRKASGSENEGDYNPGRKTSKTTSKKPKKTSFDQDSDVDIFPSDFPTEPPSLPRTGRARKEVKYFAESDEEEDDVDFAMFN

[3] = system: MCF7; assay: Antiproliferative activity against human MCF7 cells assessed as cell growth inhibition; type: functional, cell-based
[4] = Cytotoxicity against rat L6 cells assessed as cell growth inhibition; type: toxicity, cell-based
[5] = system: Plasmodium falciparum; assay: Antimalarial activity against Plasmodium falciparum K1 assessed as parasite growth inhibition; type: functional, organism-based
[6] = Selectivity index, ratio of IC50 for rat L6 cells to IC50 for Plasmodium falciparum K1; type: toxicity; details: read-out: Ratio IC50
[7] = system: Plasmodium falciparum; assay: Antimalarial activity against Plasmodium falciparum NF54 assessed as parasite growth inhibition; type: functional, organism-based
[8] = Selectivity index, ratio of IC50 for rat L6 cells to IC50 for Plasmodium falciparum NF54; type: toxicity; details: read-out: Ratio IC50
[9] = system: Hemozoin; assay: Inhibition of beta-hematin formation
[10] = system: Jurkat; assay: Antiproliferative activity against human Jurkat cells assessed as cell growth inhibition incubated for 4 days by sulphorhodamine assay; type: functional, cell-based; details: 96 h
[11] = Antiproliferative activity against […] LLTC cells assessed as cell growth inhibition incubated for 4 days by sulphorhodamine assay; type: functional, cell-based; details: LLTC cell line, 96 h
[12] = system: P388; assay: Antiproliferative activity against mouse P388 cells assessed as cell growth inhibition by measuring [3H]TdR uptake incubated for 3 days; type: functional, cell-based
[13] = system: Trypanosoma brucei; assay: Antitrypanosomal activity against Trypanosoma brucei assessed as parasite growth inhibition; type: functional, organism-based
[14] = system: Plasmodium berghei; assay: Antimalarial activity against Plasmodium berghei NK65 infected in Webster Swiss mouse assessed as parasite growth inhibition at 50 mg/kg/day, po for 5 days by geimsa dye based microscopy relative to control; type: functional; design: scale not given: the % may be the effect or the level left; details: time 5 day
[15] = system: A2780; assay: Cytotoxicity against drug resistant human A2780 cells assessed as cell growth inhibition; type: functional, cell-based
[16] = system: A2780; assay: Cytotoxicity against human A2780 cells assessed as cell growth inhibition; type: functional, cell-based
[17] = system: CH1; assay: Cytotoxicity against human CH1 cells assessed as cell growth inhibition; type: functional, cell-based
[18] = system: CH1; assay: Cytotoxicity against drug resistant human CH1 cells assessed as cell growth inhibition; type: functional, cell-based
[19] = system: SR; assay: Antiproliferative activity against human SR cells assessed as cell growth inhibition; type: functional
[20] = system: K562; assay: Antiproliferative activity against human K562 cells assessed as cell growth inhibition; type: functional
[21] = system: HL-60; assay: Antiproliferative activity against human HL-60 cells assessed as cell growth inhibition; type: functional
[22] = system: RPMI-8226; assay: Antiproliferative activity against human RPMI-8226 cells assessed as cell growth inhibition; type: functional
[23] = system: MOLT-4; assay: Antiproliferative activity against human MOLT-4 cells assessed as cell growth inhibition; type: functional
[24] = system: Hemozoin; assay: Inhibition of detergent-mediated beta-hematin formation incubated for 5 to 6 hrs by absorbance based assay
[25] = Selectivity index, ratio of IC50 for rat L6 cells to IC50 for erythrocytic Plasmodium falciparum NF54; type: toxicity; details: read-out: Ratio IC50
[26] = system: MOLT-3; assay: Antiproliferative activity against human MOLT-3 cells assessed as cell growth inhibition; type: functional, cell-based
[27] = Selectivity index, ratio of CC50 for rat L6 cells to IC50 for Plasmodium falciparum K1 […]; type: toxicity, cell-based; details: read-out: Ratio CC50/IC50
[28] = system: Plasmodium falciparum; assay: Antimalarial activity against Plasmodium falciparum K1 […] assessed as parasite growth inhibition; type: functional, organism-based
[29] = system: Plasmodium falciparum; assay: Antimalarial activity against chloroquine/mefloquine resistant Plasmodium falciparum clinical isolates assessed as parasite growth inhibition incubated for 24 hrs by microtechnique method; type: functional, organism-based
[30] = target: Telomerase reverse transcriptase (Homo sapiens, UniProt O14746); assay: Inhibition of telomerase derived from human K562 cell extract incubated for 30 mins by TRAP assay; type: cell-free
Telomerase reverse transcriptase, sequence (O14746 whole entry): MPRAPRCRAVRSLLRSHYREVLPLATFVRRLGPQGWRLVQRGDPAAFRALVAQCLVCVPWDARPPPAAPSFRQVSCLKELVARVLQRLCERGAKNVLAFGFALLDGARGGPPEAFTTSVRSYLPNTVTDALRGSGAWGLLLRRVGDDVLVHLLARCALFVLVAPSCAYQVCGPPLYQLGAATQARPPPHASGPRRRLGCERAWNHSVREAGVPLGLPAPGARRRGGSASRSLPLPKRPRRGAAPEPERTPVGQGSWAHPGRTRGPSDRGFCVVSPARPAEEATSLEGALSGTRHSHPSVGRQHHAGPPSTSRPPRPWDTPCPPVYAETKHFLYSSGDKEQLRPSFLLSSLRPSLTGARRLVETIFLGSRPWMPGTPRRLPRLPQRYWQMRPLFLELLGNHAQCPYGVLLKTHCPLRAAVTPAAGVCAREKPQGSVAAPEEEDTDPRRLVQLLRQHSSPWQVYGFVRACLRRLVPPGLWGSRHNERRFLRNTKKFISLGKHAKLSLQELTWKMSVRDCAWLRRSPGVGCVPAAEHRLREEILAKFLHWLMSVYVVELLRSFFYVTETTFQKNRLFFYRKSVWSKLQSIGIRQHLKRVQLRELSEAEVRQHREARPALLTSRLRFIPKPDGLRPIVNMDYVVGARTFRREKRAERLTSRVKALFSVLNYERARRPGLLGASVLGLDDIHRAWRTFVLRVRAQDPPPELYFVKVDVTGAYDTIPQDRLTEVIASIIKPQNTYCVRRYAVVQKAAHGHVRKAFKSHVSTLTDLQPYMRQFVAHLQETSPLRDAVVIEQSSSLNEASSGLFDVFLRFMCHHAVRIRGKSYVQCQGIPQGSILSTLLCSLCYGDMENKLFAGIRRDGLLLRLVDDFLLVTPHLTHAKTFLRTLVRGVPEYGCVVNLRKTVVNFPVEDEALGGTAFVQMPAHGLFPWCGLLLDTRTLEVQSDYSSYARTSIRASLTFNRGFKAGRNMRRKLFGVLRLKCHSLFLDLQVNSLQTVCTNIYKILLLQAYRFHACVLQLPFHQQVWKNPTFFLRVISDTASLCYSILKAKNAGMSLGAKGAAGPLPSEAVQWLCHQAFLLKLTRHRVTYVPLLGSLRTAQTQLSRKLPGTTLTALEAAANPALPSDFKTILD

[31] = system: HeLa; assay: Antiproliferative activity against human HeLa cells assessed as cell growth inhibition; type: functional, cell-based
[32] = system: DU-145; assay: Antiproliferative activity against human DU-145 cells assessed as cell growth inhibition; type: functional
[33] = system: Plasmodium falciparum; assay: Antimalarial activity against multi-drug resistant Plasmodium falciparum K1 assessed as parasite growth inhibition by microdilution method; type: functional, organism-based
[34] = system: SK-OV-3; assay: Cytotoxicity against human SK-OV-3 cells assessed as cell growth inhibition; type: functional, cell-based
[35] = system: Plasmodium falciparum; assay: Antimalarial activity against chloroquine/pyrimethamine resistant Plasmodium falciparum K1 assessed as parasite growth inhibition by measuring [3H]-hypoxanthine incubated for 24 hrs; type: functional, organism-based
[36] = system: HCT-116; assay: Antiproliferative activity against human HCT-116 cells assessed as cell growth inhibition; type: functional, cell-based
[37] = target: DNA; assay: Binding affinity to DNA (unknown origin) assessed as DNA intercalation by measuring amount of methyl green by spectrophotometry; type: nucleic-acid assay, Homo sapiens
[38] = Selectivity index, ratio of IC50 for human MRC5 to IC50 for Plasmodium falciparum Ghana; type: toxicity; details: MRC5 cells, read-out: Ratio IC50

pIC50 [9]: 3.20
SMILES: CN(C)CCNc1nc2ccccc2c2[nH]c3ccccc3c12
pIC50 [4]: 6.20
pIC50 [5]: 7.08
selectivity ratio [6]: 7.6
pIC50 [7]: 7.86
selectivity ratio [8]: 45.8

GI50 [20]: 11500 nM
GI50 [21]: 9880 nM
GI50 [22]: 6040 nM
GI50 [23]: 4700 nM
SMILES: COc1c2c3ccccc3nc-2n(C)c2ccccc12
GI50 [19]: 7100 nM

pIC50 [13]: 5.86
SMILES: CN(C)c1ccc(C2SCC(=O)N2CCCNc2c3c4ccccc4nc-3n(C)c3ccccc23)cc1 (stereo not given)

pIC50 [13]: 6.23
SMILES: Cn1c2nc3ccccc3c-2c(NCCCNC(=S)Nc2ccccc2)c2ccccc21
selectivity ratio [6]: 11
selectivity ratio [8]: 135

pIC50 [9]: 4.47
SMILES: Cn1c2nc3ccccc3c-2c(NCC(C)(C)CNC(=S)Nc2ccccc2)c2cc(Cl)ccc21
pIC50 [4]: 5.49
pIC50 [7]: 7.72
selectivity ratio [8]: 164

GI50 [20]: 1840 nM
GI50 [22]: 1080 nM
GI50 [23]: 320 nM
SMILES: Cn1c2nc3ccccc3c-2c(Nc2ccccc2)c2ccccc21

pIC50 [1]: 5.98
MIC [2]: 0.25 µM (≈ 0.0581 µg/mL)
pIC50 [3]: 6.20
SMILES: C[n+]1c2ccccc2cc2[n-]c3ccccc3c21 [CRYPTOLEPINE]
Activity [14]: 43%

GI50 [20]: 420 nM
GI50 [21]: 110 nM
GI50 [22]: 140 nM
GI50 [23]: 90 nM
SMILES: COc1ccc(Nc2c3c4ccccc4nc-3n(C)c3ccccc23)cc1
GI50 [19]: 190 nM

pIC50 [37]: 4.03
pIC50 [9]: 5.22
SMILES: Cn1c2nc3ccccc3c-2cc2ccccc21 [NEOCRYPTOLEPINE]
selectivity ratio [6]: 1.9
selectivity ratio [8]: 2
selectivity ratio [38]: 0.4

The next lines start with the compound.

SMILES: CCCCNc1c2ccccc2[n+](C)c2c1[nH]c1ccccc12
pIC50 [1]: 6.33
MIC [2]: 0.5 µM
pIC50 [3]: 5.23

SMILES: Cc1cccc2c1c1nc3c(C(=O)NCCN(C)C)cccc3cc1n2C
pIC50 [10]: 7.26
pIC50 [11]: 7.74
pIC50 [12]: 7.70

SMILES: Cn1c2nc3ccccc3c-2c(NCCCN2C(=O)c3ccccc3SC2c2ccc(Cl)cc2)c2ccccc21 (stereo not given)
pIC50 [7]: 8.59
pIC50 [13]: 6.06
selectivity ratio [8]: 361

SMILES: C[n+]1c2ccccc2c(NC2CCNCC2)c2[nH]c3ccccc3c21
Activity [14]: 55%

SMILES: CN(C)CCc1ccc2nc3c4ccccc4n(CCN(C)C)c3cc2c1
pIC50 [15]: 4.98
pIC50 [16]: 4.90
pIC50 [17]: 5.08
pIC50 [18]: 4.90

SMILES: C[C@H]1[C@H](OC(=O)CCC(=O)NCCCNc2c3ccccc3nc3c2[nH]c2ccccc23)O[C@@H]2O[C@@]3(C)CC[C@H]4[C@H](C)CC[C@@H]1[C@@]24OO3
pIC50 [24]: 4.77
selectivity ratio [25]: 1720

SMILES: Cn1cc2c3ccccc3nc-2c2ccccc21 [ISOCRYPTOLEPINE]
pIC50 [26]: 6.14
selectivity ratio [27]: 1.8
pIC50 [28]: 6.11

SMILES: COc1cc2c(cc1CN(C)CCCN(C)C)[nH]c1c3ccc(Cl)cc3ncc21
pIC50 [29]: 9.72

SMILES: c1ccc2c(NCCN3CCOCC3)c3[nH]c4ccccc4c3nc2c1
pIC50 [30]: 6.26

SMILES: C=CCn1c2ccccc2c2c(C(=O)NC3CCCCC3)c3cc(F)ccc3nc21
GI50 [1]: 7700 nM
GI50 [31]: 9900 nM
GI50 [32]: 9400 nM
GI50 [3]: 11900 nM

SMILES: c1ccc2nc3c(cc2c1)[nH]c1ccccc13 [QUINDOLINE]
pIC50 [30]: < 3.86
pIC50 [15]: 4.61
pIC50 [16]: 4.67
pIC50 [33]: < 3.64
pIC50 [17]: 4.81
pIC50 [18]: 4.52
pIC50 [34]: 4.18

SMILES: COc1cc2c(cc1CN1CCC(N3CCCCC3)CC1)[nH]c1c3ccc(Cl)cc3ncc21
pIC50 [35]: 7.30

SMILES: O=C(NCCNc1c2ccccc2nc2c1[nH]c1ccccc12)c1ccccc1
pIC50 [36]: 6.10
